Measurements taken from ChEMBL document CHEMBL1153114, “Discovery of orally available integrin alpha5beta1 antagonists” (Bioorg Med Chem Lett, 2010).

Tests used:
Integrin alpha-5/beta-1 = Integrin alpha-5/beta-1 (Homo sapiens, UniProt P05556+P08648); assay: Binding affinity to integrin alpha5beta1 receptor by ELISA; format: protein-complex assay
Integrin alpha-V/beta-3 = Integrin alpha-V/beta-3 (Homo sapiens, UniProt P05106+P06756); assay: Binding affinity to integrin […] receptor by ELISA; format: protein-complex assay
Integrin alpha-V/beta-5 = Integrin alpha-V/beta-5 (Homo sapiens, UniProt P06756+P18084); assay: Binding affinity to integrin […] receptor by ELISA; format: protein-complex assay
[1] = target: Integrin alpha-IIb/beta-3 (Homo sapiens, UniProt P05106+P08514); assay: Binding affinity to integrin alpha2bbeta3 receptor by ELISA; format: protein-complex assay
[2] = Clearance in Wistar rat at 1 mg/kg, iv; format: ADME, organism-based; set-up: dose 1 mg/kg, route intravenous; conditions: in vivo
[3] = (§1) Terminal half life in Clearance in Wistar rat at 1 mg/kg, iv; format: ADME, organism-based; set-up: dose 1 mg/kg, route intravenous; conditions: Wistar, in vivo, read-out: beta t1/2
[4] = Oral bioavailability in Wistar rat at 10 mg/kg; format: ADME, organism-based; conditions: in vivo
Rattus norvegicus = assay: as §1; format: ADME, organism-based; set-up: dose 1 mg/kg, route intravenous; conditions: in vivo

Chain of Integrin alpha-V/beta-3 (P05106 27-788 limits assumed): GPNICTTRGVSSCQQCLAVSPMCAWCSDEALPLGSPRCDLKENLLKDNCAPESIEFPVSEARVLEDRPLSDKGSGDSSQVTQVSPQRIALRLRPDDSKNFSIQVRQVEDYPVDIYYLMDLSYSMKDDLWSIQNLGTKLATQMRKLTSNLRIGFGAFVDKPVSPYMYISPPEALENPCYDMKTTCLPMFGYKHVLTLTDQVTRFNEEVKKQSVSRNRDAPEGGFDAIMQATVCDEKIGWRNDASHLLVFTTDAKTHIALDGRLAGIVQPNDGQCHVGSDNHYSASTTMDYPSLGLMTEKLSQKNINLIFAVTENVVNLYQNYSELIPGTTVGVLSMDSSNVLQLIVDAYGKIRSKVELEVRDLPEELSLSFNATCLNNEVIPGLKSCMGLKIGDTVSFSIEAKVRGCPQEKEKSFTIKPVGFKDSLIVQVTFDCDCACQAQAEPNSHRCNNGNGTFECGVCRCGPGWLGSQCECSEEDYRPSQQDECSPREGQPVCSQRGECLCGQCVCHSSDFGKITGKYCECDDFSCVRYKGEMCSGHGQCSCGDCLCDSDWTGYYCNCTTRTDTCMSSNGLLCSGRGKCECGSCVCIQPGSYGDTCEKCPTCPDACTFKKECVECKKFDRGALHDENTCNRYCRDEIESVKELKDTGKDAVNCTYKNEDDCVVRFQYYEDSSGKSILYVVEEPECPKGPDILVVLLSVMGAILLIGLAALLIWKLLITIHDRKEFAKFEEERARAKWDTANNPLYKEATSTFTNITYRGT
Chain of Integrin alpha-V/beta-3 (P06756 31-889 limits assumed): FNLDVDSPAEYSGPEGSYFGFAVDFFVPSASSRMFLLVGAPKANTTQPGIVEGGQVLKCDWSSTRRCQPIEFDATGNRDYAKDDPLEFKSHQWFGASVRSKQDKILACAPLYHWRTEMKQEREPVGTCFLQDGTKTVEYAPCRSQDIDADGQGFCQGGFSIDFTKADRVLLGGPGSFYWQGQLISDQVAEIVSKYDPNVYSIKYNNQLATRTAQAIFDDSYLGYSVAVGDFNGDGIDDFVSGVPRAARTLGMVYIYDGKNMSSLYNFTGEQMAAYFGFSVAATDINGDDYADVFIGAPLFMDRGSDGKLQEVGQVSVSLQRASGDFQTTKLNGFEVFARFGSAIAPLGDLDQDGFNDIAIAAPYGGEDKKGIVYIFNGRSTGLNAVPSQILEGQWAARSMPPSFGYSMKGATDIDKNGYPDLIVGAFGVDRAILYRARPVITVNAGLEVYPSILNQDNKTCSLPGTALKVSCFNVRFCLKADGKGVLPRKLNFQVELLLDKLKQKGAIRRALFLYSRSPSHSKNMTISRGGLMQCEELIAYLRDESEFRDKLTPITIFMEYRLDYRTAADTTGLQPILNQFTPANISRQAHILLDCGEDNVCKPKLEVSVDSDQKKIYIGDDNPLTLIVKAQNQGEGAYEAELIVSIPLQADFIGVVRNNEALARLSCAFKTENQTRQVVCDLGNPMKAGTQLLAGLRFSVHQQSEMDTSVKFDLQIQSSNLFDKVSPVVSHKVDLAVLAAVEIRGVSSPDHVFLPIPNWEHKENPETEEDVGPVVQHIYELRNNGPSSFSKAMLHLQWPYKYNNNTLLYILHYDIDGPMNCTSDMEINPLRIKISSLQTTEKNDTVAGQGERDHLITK
Chain of Integrin alpha-V/beta-3 (P06756 891-1048 limits assumed): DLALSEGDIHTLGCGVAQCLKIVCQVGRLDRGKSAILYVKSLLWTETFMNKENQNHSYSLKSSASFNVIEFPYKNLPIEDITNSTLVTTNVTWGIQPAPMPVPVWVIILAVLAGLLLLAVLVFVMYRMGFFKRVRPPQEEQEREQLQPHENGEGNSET
Chain of Integrin alpha-IIb/beta-3 (P05106 27-788 limits assumed): as the sequence (P05106 27-788 limits assumed) above
Chain of Integrin alpha-IIb/beta-3 (P08514 32-887 limits assumed): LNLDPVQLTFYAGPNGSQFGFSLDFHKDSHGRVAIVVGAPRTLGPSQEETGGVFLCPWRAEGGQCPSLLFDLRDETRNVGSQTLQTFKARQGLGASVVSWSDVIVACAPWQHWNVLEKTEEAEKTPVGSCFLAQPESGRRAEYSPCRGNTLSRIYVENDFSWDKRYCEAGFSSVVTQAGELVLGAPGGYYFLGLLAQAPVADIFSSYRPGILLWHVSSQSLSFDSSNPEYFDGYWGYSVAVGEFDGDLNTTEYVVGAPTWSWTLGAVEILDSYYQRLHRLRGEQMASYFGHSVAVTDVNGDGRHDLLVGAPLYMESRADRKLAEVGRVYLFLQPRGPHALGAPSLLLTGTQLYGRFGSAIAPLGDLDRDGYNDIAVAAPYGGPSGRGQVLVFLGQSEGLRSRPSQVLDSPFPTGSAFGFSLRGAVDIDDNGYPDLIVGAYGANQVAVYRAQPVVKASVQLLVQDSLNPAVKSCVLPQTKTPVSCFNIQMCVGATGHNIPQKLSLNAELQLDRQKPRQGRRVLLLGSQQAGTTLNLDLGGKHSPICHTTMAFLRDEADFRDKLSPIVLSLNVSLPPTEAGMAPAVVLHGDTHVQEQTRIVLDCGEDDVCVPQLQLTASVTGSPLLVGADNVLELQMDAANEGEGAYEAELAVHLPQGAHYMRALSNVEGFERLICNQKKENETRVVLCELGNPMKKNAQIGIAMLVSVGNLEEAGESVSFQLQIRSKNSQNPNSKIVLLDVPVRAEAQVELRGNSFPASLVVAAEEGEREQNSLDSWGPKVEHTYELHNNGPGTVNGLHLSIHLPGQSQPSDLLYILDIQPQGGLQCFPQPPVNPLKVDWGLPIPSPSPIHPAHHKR
Chain of Integrin alpha-IIb/beta-3 (P08514 891-1039 limits assumed): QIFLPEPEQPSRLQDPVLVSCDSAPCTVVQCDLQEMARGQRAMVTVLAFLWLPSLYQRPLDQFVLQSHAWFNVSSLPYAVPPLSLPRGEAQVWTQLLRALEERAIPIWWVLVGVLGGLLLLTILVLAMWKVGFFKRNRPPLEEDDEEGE
Chain of Integrin alpha-V/beta-5 (P06756 31-889 limits assumed): as the sequence (P06756 31-889 limits assumed) above
Chain of Integrin alpha-V/beta-5 (P06756 891-1048 limits assumed): as the sequence (P06756 891-1048 limits assumed) above
Chain of Integrin alpha-V/beta-5 (P18084 24-799 limits assumed): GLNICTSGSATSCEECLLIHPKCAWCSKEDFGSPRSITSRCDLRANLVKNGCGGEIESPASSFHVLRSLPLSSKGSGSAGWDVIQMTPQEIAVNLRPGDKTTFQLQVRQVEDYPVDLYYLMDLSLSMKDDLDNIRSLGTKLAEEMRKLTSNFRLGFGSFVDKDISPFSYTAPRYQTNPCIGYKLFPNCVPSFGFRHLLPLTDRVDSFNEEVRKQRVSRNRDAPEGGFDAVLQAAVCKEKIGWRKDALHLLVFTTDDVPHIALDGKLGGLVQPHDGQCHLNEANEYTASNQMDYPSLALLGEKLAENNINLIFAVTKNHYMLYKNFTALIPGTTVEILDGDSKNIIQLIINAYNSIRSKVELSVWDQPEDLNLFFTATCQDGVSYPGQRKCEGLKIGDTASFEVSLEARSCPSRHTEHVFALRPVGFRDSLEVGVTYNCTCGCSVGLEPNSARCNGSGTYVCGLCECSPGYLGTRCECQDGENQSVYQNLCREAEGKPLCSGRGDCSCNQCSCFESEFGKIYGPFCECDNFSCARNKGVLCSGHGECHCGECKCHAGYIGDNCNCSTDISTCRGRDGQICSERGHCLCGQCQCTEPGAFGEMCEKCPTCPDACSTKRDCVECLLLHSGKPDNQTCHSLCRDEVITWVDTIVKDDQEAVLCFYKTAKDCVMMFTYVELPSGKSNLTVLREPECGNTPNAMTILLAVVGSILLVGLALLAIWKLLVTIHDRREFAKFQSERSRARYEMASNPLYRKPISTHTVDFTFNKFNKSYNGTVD

| Structure (SMILES) | IC50 (Integrin alpha-5/beta-1) [nM] | IC50 (Integrin alpha-V/beta-3) [nM] | IC50 (Integrin alpha-V/beta-5) [nM] | IC50 [1] [nM] | clearance [2] [mL/min/kg] | half-life [3] [h] | bioavailability [4] [%] | beta t1/2 (Rattus norvegicus) [h] |
| --- | --- | --- | --- | --- | --- | --- | --- | --- |
| Cc1ccnc(NCc2cnc(-c3ccc(C[C@H](NC(=O)c4c(C)cc(C)cc4C)C(=O)O)cc3)s2)c1 | 13 | 472 | 502 | 150000 | – | – | – | – |
| Cc1ccnc(NCC2CC(=O)N(c3ccc(C[C@H](NC(=O)c4c(C)cc(C)cc4C)C(=O)O)cc3)C2)c1 (some centres undefined) | 1.6 | 319 | 1340 | – | – | – | – | – |
| Cc1ccnc(NCc2coc(-c3ccc(C[C@H](NC(=O)c4c(C)cc(C)cc4C)C(=O)O)cc3)c2)c1 | 79 | 2420 | 2480 | 52000 | 17 | 1.47 | 26 | – |
| Cc1ccnc(NCc2cc(-c3ccc(C[C@H](NC(=O)c4c(C)cc(C)cc4C)C(=O)O)cc3)on2)c1 | 6.1 | 261 | 257 | 118000 | 9 | 2.3 | 11 | – |
| Cc1cc(C)c(C(=O)N[C@@H](Cc2ccc(OCCCNc3ccccn3)cc2)C(=O)O)c(C)c1 | 2.5 | 703 | – | – | – | – | – | – |
| Cc1ccnc(NCc2cccc(-c3ccc(CC(NC(=O)c4c(C)cc(C)cc4C)C(=O)O)cc3)c2)c1 (racemic) | 87 | 890 | > 20000 | 180000 | – | – | – | – |
| Cc1ccnc(NCc2ccc(-c3ccc(CC(NC(=O)c4c(C)cc(C)cc4C)C(=O)O)cc3)cc2)c1 (racemic) | 65 | 2920 | > 20 | 165000 | – | – | – | – |

Further compounds by falling IC50 (Integrin alpha-5/beta-1), results first:

| IC50 (Integrin alpha-5/beta-1) [nM] | IC50 (Integrin alpha-V/beta-3) [nM] | IC50 (Integrin alpha-V/beta-5) [nM] | IC50 [1] [nM] | clearance [2] [mL/min/kg] | half-life [3] [h] | bioavailability [4] [%] | beta t1/2 (Rattus norvegicus) [h] | Structure (SMILES) |
| --- | --- | --- | --- | --- | --- | --- | --- | --- |
| 887 | 16000 | 17000 | 77000 | – | – | – | – | Cc1ccnc(NCc2sccc2-c2ccc(C[C@H](NC(=O)c3c(C)cc(C)cc3C)C(=O)O)cc2)c1 |
| 46 | 1730 | 3570 | 97000 | – | – | – | – | Cc1ccnc(NCc2csc(-c3ccc(C[C@H](NC(=O)c4c(C)cc(C)cc4C)C(=O)O)cc3)c2)c1 |
| 2.3 | 84 | 11000 | 23000 | 70 | – | 16 | 1.1 | Cc1ccnc(NCC2CCN(c3ccc(CC(NC(=O)c4c(C)cc(C)cc4C)C(=O)O)cc3)CC2)c1 (racemic) |
| 1.6 | 16000 | 90700 | > 50000 | – | – | – | – | Cc1cc(C)c(C(=O)N[C@@H](CNC(=O)CO[C@H]2C[C@H](CNc3ccccn3)N(C(=O)CC(C)(C)C)C2)C(=O)O)c(C)c1 |
| 1.5 | 100 | 347 | 89000 | – | – | – | – | Cc1ccnc(NCc2cn(-c3ccc(C[C@H](NC(=O)c4c(C)cc(C)cc4C)C(=O)O)cc3)nn2)c1 |
